These results are taken from US20040039050A1, “Cryptotanshinone for preventing and alleviating alzheimer's disease” (priority 2001, published 2004).

Data set [1] can be described thus: Brain tissue entrance experiment. The format is in vivo, rats. The following applies: intragastric 300 mg/kg/day for 5 days; brain 1 hour after administration on 5th day; chloroform extract. How it is done:
Experimental animals were healthy male rats. The drug was continually administrated intragastrically at a dose of 300 mg/kg/day, continued for 5 days. 1 hour after administration on the 5th day, rats were put to death and brains were taken out. The brain tissues were homogenized and then extracted with chloroform.

Data set [2] relates to hyperammonemia rat model. Put plainly: Blood ammonia reducing experiment (injection). The format is in vivo, SD rats. As to conditions: for Reduction rate: blood ammonia, intraperitoneal for 4 days. As for the experimental part:
The animals used in this experiment were 50 healthy male SD rats weighing 250-300 g. They were randomly divided into 5 groups, that is, normal control group, experimental control group (acetamide group), sodium glutamate/acetamide group, Cryptotanshinone/acetamide group and tanshinone IIA/acetamide group. The rats in all those groups except the normal control group were injected intraperitoneally with saline, sodium glutamate injection (with a dose of 410 mg/kg), saline solution of Cryptotanshinone (containing small amount of surface active agent, with a dose of 10 mg/kg), saline solution of tanshinone IIA (containing small amount of surface active agent, with a dose of 10 mg/kg) respectively. 45 min after the injection, the rats in all those groups except normal control group were injected intraperitoneally with 5.5 mmol/kg acetamide. Above injections continued for 4 days. In the 4th day, 30 min after the acetamide injection, blood samples of the rats in each group were collected by eyeball removing method immediately, and processed with the anticoagulant EDTA-Na, then the blood ammonia concentration was determined using conventional method.
(§1) The dose of sodium glutamate in this example and following examples was settled with the reference of its actual clinical dose. The method for determining the blood ammonia concentration in this example and following examples was enzyme-UV method, the instrument used was HITACHI-7170 automatic analyzer, and the kit used was AMMONIA kit. Calculation formula of decrease ratio in Table 1 and following tables was: Decrease rate=[1−(concentration of treating group−concentration of normal control group)/(concentration of experimental control group−concentration of normal control group)]×100%.
Using the same experiment method, 90 min after the acetamide injection at the 4th day, blood samples of the rats in each group were collected by eyeball removing method immediately. The blood ammonia concentration was determined.

The test system of data set [3] is healthy male mice. The experiment in a line: 30 days toxicity test in mouse. It counts as in vivo. The following applies: intragastric 200 mg/kg day for 30 days. How it is done:
The drug was continually administrated intragastrically for 30 days with dose of 200 mg/kg day.

The conditions of data set [4]: rats.
The test system of data set [5] is AD rat model. Put plainly: Impaired neuro-behavioral symptoms relieving experiment, Morris water labyrinth. The following applies: oral 200 mg/kg/day, D-galactose/acetamide rats. It counts as in vivo, SD rats. Also on record: key: —: −Normal; +Dysmnesia (Number of + indicates the extent of memory impairment, and +++++ represents the most severe case.); +++++ represents the most severe case. From the text: Experimental animals were 40 healthy male SD rats, weight between 250-300 g. They were randomly divided into 4 groups, i.e. normal control group, model control group A (D-galactose/quinolinic acid group), model control group B (D-galactose/acetamide group), and Cryptotanshinone group (D-galactose/acetamide/Cryptotanshinone group). Morris water labyrinth method was used to evaluate the neuro-behavioral symptoms of rats model caused by subacute senium and chemical damage by D-galactose.
Normal control group: routine breeding.
Model control group A (D-galactose/quinolinic acid group): D-galactose was injected subcutaneously (50 mg/kg/day, for 6 weeks) to cause subacute senium in rats. Quinolinic acid (1 μL, containing quinolinic acid 75 nmol) was injected into the rats' bilateral hippocampal gyrus to evidently decrease rats' labyrinth learning and memorizing ability, which served as animal model similar to AD.
Model control group B (D-galactose/acetamide group): D-galactose was injected subcutaneously (50 mg/kg/day, for 6 weeks) to cause subacute senium in rats; acetamide (10 mmol/kg/day) was injected intraperitoneally for 7 continuous days. […] The treated rats were served as animal model similar to AD.
Cryptotanshinone group (D-galactose/acetamide/Cryptotanshinone group):
Simultaneously with subcutaneous injection of D-galactose (50 mg/kg/day, for 6 weeks), Cryptotanshinone was orally administered (the dose was 200 mg/kg/day). 10 mmol/kg acetamide was intraperitoneally injected for 7 continuous days (Cryptotanshinone was orally given at the same time).

In data set [6] the test system is healthy male mice. Put plainly: Acute toxicity test in mouse. The format is in vivo. As to conditions: intragastric. An excerpt: The drug was administrated intragastrically.
Data set [7] deals with high-level brain ammonia animal model. Put plainly: Brain tissue ammonia concentration reducing experiment (oral). It counts as in vivo, SD rats. As to conditions: for Reduction rate: brain tissue ammonia, oral for 4 days, 60 min after acetamide on 4th day; for Brain tissue ammonia concentration: oral for 4 days (sodium glutamate 200 mg/kg, Cryptotanshinone 150 mg/kg), brain 60 min after acetamide on 4th day.
Description: as §1
Experimental animals were 50 healthy male SD rats, weight between 250-300 g. They were randomly divided into 4 groups, i.e. normal control group, experimental control group ([…]), sodium glutamate/acetamide group, and Cryptotanshinone/acetamide group. […] 45 min after the injection, the rats in all those groups except the normal control group were injected intraperitoneally with 5.5 mmol/kg acetamide. Above injections continued for 4 days. In the 4th day, 60 min after the acetamide injection, the rats of each group were put to death, and brain tissue samples were taken out immediately and homogenized under low temperature condition, then the ammonia concentration in brain tissue was determined by using glutamate dehydrogenase assay.
The same experiment condition in example 6 was adopted except Sodium Glutamate oral taking (the dose was 200 mg/kg) instead of Sodium Glutamate injection and Cryptotanshinone oral taking (dose 150 mg/kg) instead of Cryptotanshinone injection. In the 4th day, 60 min after the acetamide injection, the rats of each group were put to death and brain tissue samples were taken out immediately. Then, the ammonia concentration in brain tissue was determined.

The test system is the same in data set [8]. Put plainly: Brain tissue ammonia concentration reducing experiment (injection). It counts as in vivo, SD rats. The following applies: for Reduction rate: brain tissue ammonia, intraperitoneal for 4 days, 60 min after acetamide on 4th day; for Brain tissue ammonia concentration: intraperitoneal for 4 days (sodium glutamate 410 mg/kg, Cryptotanshinone 30 mg/kg), brain 60 min after acetamide on 4th day.
Description: as §1
Experimental animals were 50 healthy male SD rats, weight between 250-300 g. They were randomly divided into 4 groups, i.e. normal control group, experimental control group ([…]), sodium glutamate/acetamide group, and Cryptotanshinone/acetamide group. The rats in all those groups except the normal control group were injected intraperitoneally with saline, sodium glutamate solution (with a dose of 410 mg/kg), and saline solution of Cryptotanshinone (containing small amount of surface active agent, with a dose of 30 mg/kg) respectively. 45 min after the injection, the rats in all those groups except the normal control group were injected intraperitoneally with 5.5 mmol/kg acetamide. Above injections continued for 4 days. In the 4th day, 60 min after the acetamide injection, the rats of each group were put to death, and brain tissue samples were taken out immediately and homogenized under low temperature condition, then the ammonia concentration in brain tissue was determined by using glutamate dehydrogenase assay.

The subject of data set [9] is hyperammonemia rat model. The experiment in a line: Blood ammonia reducing experiment (oral). It counts as in vivo, SD rats.

Bounds are passed on as bounds.

In the case of `C[C@H]1COC2=C1C(=O)C(=O)c1c2ccc2c1CCCC2(C)C` [Cryptotanshinone], the “Cryptotanshinone detected in brain tissue with HPLC” value in data set [1] is on record as “Significant amount”. Also, the Reduction rate in [2] (30 min after acetamide on 4th day) is 60%; in data set [7], 45%; in data set [8], 60%. Further, the “Change in growth and development, hematopoiesis function, and biochemical index” value in data set [3] was “no apparent abnormal change or toxic reaction”. Moreover, the “Death of the tested mice” value in data set [3] is listed as “no death”. Also, in data set [3], the “Pathology of major organs (anatomical and tissue microscopy inspection)” value is “No pathology change”. Further, the “Content of Cryptotanshinone in tissues” value in data set [4] is “highest in blood and brain tissue”. The “AD Symptom-Dysmnesia Synthetic Index” value in data set [5] (Day 1 after chemical damage) is listed as “—”; in data set [5] (Day 2 after chemical damage) it was “—”; in [5] (Day 3 after chemical damage), “—”; in [5] (Day 4 after chemical damage), “—”; in data set [5] (Day 5 after chemical damage), “+”; in data set [5] (Day 6 after chemical damage), “+”. In addition, the “AD Symptom-Dysmnesia Synthetic Index” value in [5] (Day 7 after chemical damage) is listed as “+”. In addition, in data set [6], the LD50 is above 30 g 1 kg. For the same molecule, the “Toxic symptom or death” value in data set [6] (dose added to 1.5 g/kg) was “no toxic symptom or death”. For the same molecule, the “Brain tissue ammonia concentration” value worked out at 310 nmol/g in [7] and 280 nmol/g in data set [8].
As to `Cc1cccc2c3c(ccc12)C1=C(C(=O)C3=O)[C@@H](C)CO1` [Dihydrotanshinone I], the Reduction rate in [2] (90 min after acetamide on 4th day) came out at 100%; in data set [9] (blood ammonia, oral for 4 days, 90 min after acetamide on 4th day), 97%. The Blood ammonia concentration in [2] (intraperitoneal for 4 days (sodium glutamate 410 mg/kg, others 10 mg/kg), blood 90 min after acetamide on 4th day) was determined as 110 µmol/L; in data set [9] (oral for 4 days (sodium glutamate 200 mg/kg, others 100 mg/kg), blood 90 min after acetamide on 4th day) it was 120 µmol/L.
Consider `N[C@@H](CCC(=O)[O-])C(=O)[O-].[Na+].[Na+]` [Sodium Glutamate, reference compound], for which, in [7], the Reduction rate is reported as 19% and the “Brain tissue ammonia concentration” value is 370 nmol/g. In [8], the Reduction rate was 28% and the “Brain tissue ammonia concentration” value was found to be 350 nmol/g.
